# According to ChEMBL document CHEMBL1938339, “Tripeptidic BACE1 inhibitors devised by in-silico conformational structure-based design” (Bioorg Med Chem Lett, 2012):
# Target: Beta-secretase 1 (Homo sapiens) (UniProt P56817)
# Experiment: Inhibition of human recombinant BACE1 at 2 uM by FRET assay
# Chain of Beta-secretase 1 (Homo sapiens) (P56817 whole entry): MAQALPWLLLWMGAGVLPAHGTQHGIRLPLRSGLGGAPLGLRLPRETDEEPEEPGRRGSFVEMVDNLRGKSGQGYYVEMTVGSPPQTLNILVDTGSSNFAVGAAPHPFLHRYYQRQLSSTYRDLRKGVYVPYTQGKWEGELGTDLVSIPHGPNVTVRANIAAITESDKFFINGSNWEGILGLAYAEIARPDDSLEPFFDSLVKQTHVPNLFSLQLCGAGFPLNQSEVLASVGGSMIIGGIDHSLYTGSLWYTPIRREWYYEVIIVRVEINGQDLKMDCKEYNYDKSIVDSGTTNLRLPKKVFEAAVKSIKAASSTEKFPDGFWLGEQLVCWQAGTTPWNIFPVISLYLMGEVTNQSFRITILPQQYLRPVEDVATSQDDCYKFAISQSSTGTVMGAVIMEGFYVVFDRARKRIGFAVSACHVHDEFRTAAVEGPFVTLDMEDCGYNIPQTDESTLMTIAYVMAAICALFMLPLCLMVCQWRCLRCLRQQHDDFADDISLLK
row,SMILES,inhibition
1,CC(C)[C@H](NC(=O)[C@@H](N)CNC(=O)c1nn[nH]n1)C(=O)N[C@@H](CC1CCCCC1)C(=O)NC(C)(C)Cc1ccccc1,76%
2,CC(C)[C@H](NC(=O)[C@@H](N)CNC(=O)c1[nH]c(=O)[nH]c(=O)c1F)C(=O)N[C@@H](CC1CCCCC1)C(=O)NC(C)(C)Cc1ccc([N+](=O)[O-])cc1,89%
3,CC(C)C[C@H](NC(=O)[C@@H](NC(=O)[C@@H](N)CNC(=O)c1[nH]c(=O)[nH]c(=O)c1F)C(C)C)C(=O)N1CCCCCCC1,85%
4,CC(C)C[C@H](NC(=O)[C@@H](NC(=O)[C@@H](N)CNC(=O)c1nn[nH]n1)C(C)C)C(=O)NC(C)(C)Cc1ccccc1,70%
5,CC(C)C[C@H](NC(=O)[C@@H](NC(=O)[C@@H](N)CNC(=O)c1[nH]c(=O)[nH]c(=O)c1F)C(C)C)C(=O)N1CCCCCC1,89%
6,COc1ccc(CC(C)(C)NC(=O)[C@H](CC2CCCCC2)NC(=O)[C@@H](NC(=O)[C@@H](N)CNC(=O)c2[nH]c(=O)[nH]c(=O)c2F)C(C)C)cc1,85%
7,Cc1ccc(CC(C)(C)NC(=O)[C@H](CC2CCCCC2)NC(=O)[C@@H](NC(=O)[C@@H](N)CNC(=O)c2[nH]c(=O)[nH]c(=O)c2F)C(C)C)cc1,88%
8,CC(C)[C@H](NC(=O)[C@@H](N)CNC(=O)c1[nH]c(=O)[nH]c(=O)c1F)C(=O)N[C@@H](CC1CCCCC1)C(=O)NC(C)(C)Cc1ccc(I)cc1I,96%
9,CC(C)C[C@H](NC(=O)[C@@H](NC(=O)[C@@H](N)CNC(=O)c1[nH]c(=O)[nH]c(=O)c1F)C(C)C)C(=O)N1CCCC1,88%
10,CC(C)[C@H](NC(=O)[C@@H](N)CCC(=O)O)C(=O)N[C@@H](CC1CCCCC1)C(=O)NC(C)(C)Cc1ccccc1,16%
11,COc1cccc(CC(C)(C)NC(=O)[C@H](CC2CCCCC2)NC(=O)[C@@H](NC(=O)[C@@H](N)CNC(=O)c2cc(O)ccc2O)C(C)C)c1,49%
12,CC(C)C[C@H](NC(=O)[C@@H](NC(=O)[C@@H](N)CNC(=O)c1[nH]c(=O)[nH]c(=O)c1F)C(C)C)C(=O)NC(C)(C)Cc1ccc(Br)cc1,85%
13,CC(C)C[C@H](NC(=O)[C@@H](NC(=O)[C@@H](N)CNC(=O)c1[nH]c(=O)[nH]c(=O)c1F)C(C)C)C(=O)NC(C)(C)CC1CCCCC1,91%
14,Cc1ccccc1CC(C)(C)NC(=O)[C@H](CC1CCCCC1)NC(=O)[C@@H](NC(=O)[C@@H](N)CNC(=O)c1[nH]c(=O)[nH]c(=O)c1F)C(C)C,84%
15,CC(C)C[C@H](NC(=O)[C@@H](NC(=O)[C@@H](N)CNC(=O)c1cc(O)ccc1O)C(C)C)C(=O)NC(C)(C)Cc1ccccc1,77%
16,CC(C)C[C@H](NC(=O)[C@@H](NC(=O)[C@@H](N)CNC(=O)c1cc(O)ccc1O)C(C)C)C(=O)NC(C)(C)Cc1cc(F)cc(F)c1,59%
17,CC(C)C[C@H](NC(=O)[C@@H](NC(=O)[C@@H](N)CNC(=O)c1cc(O)ccc1O)C(C)C)C(=O)NC(C)(C)Cc1ccc(I)cc1I,78%
18,CC(C)[C@H](NC(=O)[C@@H](N)CNC(=O)c1[nH]c(=O)[nH]c(=O)c1F)C(=O)N[C@@H](CC1CCCCC1)C(=O)NC(C)(C)CC1CCCCC1,88%
19,Cc1ccc(CC(C)(C)NC(=O)[C@H](CC(C)C)NC(=O)[C@@H](NC(=O)[C@@H](N)CNC(=O)c2[nH]c(=O)[nH]c(=O)c2F)C(C)C)cc1,86%
20,CC(C)C[C@H](NC(=O)[C@@H](NC(=O)[C@@H](N)CNC(=O)c1[nH]c(=O)[nH]c(=O)c1F)C(C)C)C(=O)N1CCCCC1,91%
21,COc1ccc(CC(C)(C)NC(=O)[C@H](CC(C)C)NC(=O)[C@@H](NC(=O)[C@@H](N)CNC(=O)c2[nH]c(=O)[nH]c(=O)c2F)C(C)C)cc1,83%
22,CC(C)[C@H](NC(=O)[C@@H](N)CNC(=O)c1cc(O)ccc1O)C(=O)N[C@@H](CC1CCCCC1)C(=O)NC(C)(C)Cc1ccccc1,80%
23,COc1ccc(CC(C)(C)NC(=O)[C@H](CC2CCCCC2)NC(=O)[C@@H](NC(=O)[C@@H](N)CNC(=O)c2cc(O)ccc2O)C(C)C)cc1,45%
24,CC(C)[C@H](NC(=O)[C@@H](N)CNC(=O)c1[nH]c(=O)[nH]c(=O)c1F)C(=O)N[C@@H](CC1CCCCC1)C(=O)NC(C)(C)Cc1ccc(Br)cc1,92%
25,Cc1ccccc1CC(C)(C)NC(=O)[C@H](CC1CCCCC1)NC(=O)[C@@H](NC(=O)[C@@H](N)CNC(=O)c1cc(O)ccc1O)C(C)C,54%
26,COc1ccc(CC(C)(C)NC(=O)[C@H](CC(C)C)NC(=O)[C@@H](NC(=O)[C@@H](N)CNC(=O)c2cc(O)ccc2O)C(C)C)cc1,41%
27,CC(C)C[C@H](NC(=O)[C@@H](NC(=O)[C@@H](N)CNC(=O)c1cc(O)ccc1O)C(C)C)C(=O)NC(C)(C)Cc1ccc([N+](=O)[O-])cc1,45%
28,CC(C)[C@H](NC(=O)[C@@H](N)CNC(=O)c1cc(O)ccc1O)C(=O)N[C@@H](CC1CCCCC1)C(=O)NC(C)(C)Cc1ccc([N+](=O)[O-])cc1,80%

# Results, then the molecule that gave them:
row,inhibition,SMILES
1,46%,COc1cccc(CC(C)(C)NC(=O)[C@H](CC(C)C)NC(=O)[C@@H](NC(=O)[C@@H](N)CNC(=O)c2cc(O)ccc2O)C(C)C)c1
2,81%,CC(C)C[C@H](NC(=O)[C@@H](NC(=O)[C@@H](N)CNC(=O)c1[nH]c(=O)[nH]c(=O)c1F)C(C)C)C(=O)N1CCCCCCCC1
3,77%,COc1cccc(CC(C)(C)NC(=O)[C@H](CC2CCCCC2)NC(=O)[C@@H](NC(=O)[C@@H](N)CNC(=O)c2[nH]c(=O)[nH]c(=O)c2F)C(C)C)c1
4,91%,CC(C)C[C@H](NC(=O)[C@@H](NC(=O)[C@@H](N)CNC(=O)c1[nH]c(=O)[nH]c(=O)c1F)C(C)C)C(=O)NC(C)(C)Cc1ccc(I)cc1I
5,< 10%,CC(C)C[C@H](NC(=O)[C@@H](NC(=O)[C@@H](N)CCC(=O)O)C(C)C)C(=O)NC(C)(C)Cc1ccccc1
6,84%,COc1cccc(CC(C)(C)NC(=O)[C@H](CC(C)C)NC(=O)[C@@H](NC(=O)[C@@H](N)CNC(=O)c2[nH]c(=O)[nH]c(=O)c2F)C(C)C)c1
7,91%,CC(C)[C@H](NC(=O)[C@@H](N)CNC(=O)c1[nH]c(=O)[nH]c(=O)c1F)C(=O)N[C@@H](CC1CCCCC1)C(=O)NC(C)(C)Cc1cc(F)cc(F)c1
8,51%,Cc1ccc(CC(C)(C)NC(=O)[C@H](CC(C)C)NC(=O)[C@@H](NC(=O)[C@@H](N)CNC(=O)c2cc(O)ccc2O)C(C)C)cc1
9,27%,CC(C)C[C@H](NC(=O)[C@@H](NC(=O)[C@@H](N)CNC(=O)c1[nH]c(=O)[nH]c(=O)c1F)C(C)C)C(=O)NC(C)(C)Cc1ccc([N+](=O)[O-])cc1
10,88%,CC(C)[C@H](NC(=O)[C@@H](N)CNC(=O)c1cc(O)ccc1O)C(=O)N[C@@H](CC1CCCCC1)C(=O)NC(C)(C)Cc1ccc(I)cc1I
11,92%,CC(C)[C@H](NC(=O)[C@@H](N)CNC(=O)c1[nH]c(=O)[nH]c(=O)c1F)C(=O)N[C@@H](CC1CCCCC1)C(=O)NC(C)(C)Cc1ccccc1
12,86%,CC(C)C[C@H](NC(=O)[C@@H](NC(=O)[C@@H](N)CNC(=O)c1[nH]c(=O)[nH]c(=O)c1F)C(C)C)C(=O)NC(C)(C)Cc1cc(F)cc(F)c1
13,91%,Cc1ccccc1CC(C)(C)NC(=O)[C@H](CC(C)C)NC(=O)[C@@H](NC(=O)[C@@H](N)CNC(=O)c1[nH]c(=O)[nH]c(=O)c1F)C(C)C
14,81%,CC(C)[C@H](NC(=O)[C@@H](N)CNC(=O)c1cc(O)ccc1O)C(=O)N[C@@H](CC1CCCCC1)C(=O)NC(C)(C)Cc1ccc(Br)cc1
15,90%,CC(C)C[C@H](NC(=O)[C@@H](NC(=O)[C@@H](N)CNC(=O)c1[nH]c(=O)[nH]c(=O)c1F)C(C)C)C(=O)NC(C)(C)Cc1ccccc1
